Tests used:
[1] = system: AR transcriptional activity (MMTV reporter); assay: MMTV reporter assay; assay type: cell-based; settings: Table 3 grade HIGH/MED/LOW, grades not defined
[2] = system: AR positive PCa cells (LNCaP, LNCaP-AR, CWR22, 22Rv1, LAPC4); assay: MTT / CellTiter GLO cell viability, AR positive prostate cancer cells; settings: for MTT AR-Pos: Table 3 grade HIGH/MED/LOW, grades not defined
Protocol: (§1) The results are means of quadruplicate expts±s.d. Top panel: CellTiter GLO luminescent bioassay (arbitrary units on vertical axis). Bottom panel: classical MTT assay ([blue/yellow]=[viable/non-viable]).
(§2) Experiments were performed in quadruplicate; results are means+/−s.d.
Results were normalized to that of vehicle control. Experiments were performed in quadruplicate; results are means+/−s.d.
Next, the effects of the compounds on growth of prostate cancer cell lines in vitro were evaluated.

[3] = system: AR-null PCa cells (DU145, PC3); assay: MTT / CellTiter GLO cell viability, AR-null prostate cancer cells; settings: Table 3 grade HIGH/MED/LOW, grades not defined
Protocol: as §1, §2
AR null PC3 cells were exposed to the indicated compounds for 6 days; cell viability was measured by MTT assay. Results were normalized to that of vehicle control. Experiments were performed in quadruplicate; results are means+/−s.d.
For each compound and concentration in the figure, the bars represent relative cell viability of 22Rv1, LAPC4, and DU145, from left to right.
For each compound and concentration in the figure, the bars represent relative cell viability of CWR22 and PC3, from left to right.

[4] = system: androgen response element (ARE); assay: ARE reporter assay (tandem copies of the androgen response element); assay type: cell-based; settings: for ARE: Table 3 grade HIGH/MED/LOW, grades not defined
Protocol: FIG. 11A. Effects of JN series compounds in reporter assays for androgen response element. Experiments were performed in triplicate and results are means+/−s.d.

[5] = system: glucocorticoid response element (GRE) / glucocorticoid receptor; assay: GRE reporter assay; assay type: cell-based; settings: Table 3 grade HIGH/MED/LOW, grades not defined
Protocol: FIG. 11B. Effects of JN series compounds in reporter assays for glucocorticoid response element. Experiments were performed in triplicate and results are means+/−s.d.

SMILES | MMTV [1] | MTT AR-Pos [2] | further results
CN(CCC(=O)/C(=C\c1ccc(Cl)cc1)c1ccccc1)Cc1ccccc1 [JN001, (Z)-5-(Benzyl(methyl)amino)-1-(4-chlorophenyl)-2-phenylpent-1-en-3-one] | LOW | – | –
CN(CCC(=O)/C(=C\c1ccc(Cl)cc1)c1ccccc1)Cc1ccccc1.Cl [JN002, (Z)-5-(Benzyl(methyl)amino)-1-(4-chlorophenyl)-2-phenylpent-1-en-3-one hydrochloride] | LOW | – | –
C=CC(=O)/C(=C\c1ccc(Cl)cc1)c1ccccc1 [JN004, (Z)-1-(4-Chlorophenyl)-2-phenylpenta-1,4-dien-3-one] | LOW | – | –
C=CC(O)/C(=C/c1ccc(Cl)cc1)c1ccccc1 (centres unmarked) [JN005, (E)-1-(4-Chlorophenyl)-2-phenylpenta-1,4-dien-3-ol] | MED | – | –
Cl.O=C(CCN1CCCC1)/C(=C\c1ccc(Cl)cc1)c1ccccc1 [JN006] | LOW | – | –
CN(C)CCC(=O)/C(=C\c1ccc(Cl)cc1)c1ccccc1.Cl [JN007] | MED | – | –
CN1CCN(CCC(=O)/C(=C\c2ccc(Cl)cc2)c2ccccc2)CC1.Cl [JN009] | LOW | – | –
C=CC(O)/C(=C\c1ccc(Br)cc1)c1ccccc1 (centres unmarked) [JN010] | LOW | – | –
C=CC(O)/C(=C\c1ccc(F)cc1)c1ccccc1 (centres unmarked) [JN011] | MED | – | –
C=CC(O)/C(=C\c1ccc(C)cc1)c1ccccc1 (centres unmarked) [JN012] | LOW | – | –
C=CC(O)/C(=C/c1ccc(C)cc1)c1ccccc1 (centres unmarked) [JN013] | MED | – | –
C=CC(O)/C(=C\c1ccc(OC)cc1)c1ccccc1 (centres unmarked) [JN014] | MED | – | –
COc1ccc(/C=C(\C(=O)CCN(C)C)c2ccccc2)cc1.Cl [JN016] | HIGH | – | –
C=C(CN(C)Cc1ccccc1)C(=O)/C(=C\c1ccc(Cl)cc1)c1ccccc1.Cl [JN019] | – | LOW | –
C=C(CN(C)Cc1ccccc1)C(=O)/C(=C\c1ccc(Br)cc1)c1ccccc1.Cl [JN020] | LOW | LOW | –
C=C(CN(C)Cc1ccccc1)C(=O)/C(=C/c1ccc(Br)cc1)c1ccccc1.Cl [JN021] | LOW | LOW | MTT AR-Neg [3]: MED
C=C(CN(C)C)C(=O)/C(=C\c1ccc(Cl)cc1)c1ccccc1.Cl [JN023] | LOW | LOW | MTT AR-Neg [3]: LOW
C=C(C)C(=O)/C(=C\c1ccc(Cl)cc1)c1ccccc1 [JN025] | HIGH | LOW | MTT AR-Neg [3]: MED; ARE [4]: HIGH
C/C(=C\c1ccc(Cl)cc1)C(=O)c1ccccc1 [JN026, (E)-3-(4-Chlorophenyl)-2-methyl-1-phenylprop-2-en-1-one] | LOW | – | ARE [4]: LOW
O=C(/C(=C/c1ccc(Cl)cc1)CN1CCCC1)c1ccccc1 [JN028] | HIGH | – | ARE [4]: HIGH
O=C(/C(=C/c1ccc(Cl)cc1)CN1CCOCC1)c1ccccc1 [JN029] | HIGH | – | ARE [4]: HIGH
CN(C/C(=C\c1ccc(F)cc1)C(=O)c1ccccc1)Cc1ccccc1 [JN030] | MED | – | ARE [4]: MED

SMILES | MMTV [1] | MTT AR-Pos [2] | further results
CN(C/C(=C\c1ccc(Cl)c(Cl)c1)C(=O)c1ccccc1)Cc1ccccc1 [JN031] | LOW | – | ARE [4]: LOW
C=C(C)C(=O)/C(=C/c1ccc(Cl)cc1)c1ccccc1 [JN032] | HIGH | HIGH | MTT AR-Neg [3]: LOW
C=C(C)C(O)/C(=C/c1ccc(Cl)cc1)c1ccccc1 (centres unmarked) [JN033] | MED | LOW | MTT AR-Neg [3]: LOW
C=C(C)C(O)/C(=C\c1ccc(Cl)cc1)c1ccccc1 (centres unmarked) [JN034] | MED | MED | MTT AR-Neg [3]: LOW
CC(C)CN(C/C(=C\c1ccc(Cl)cc1)C(=O)c1ccccc1)CC(C)C [JN035] | HIGH | – | –
CC(C)N(C/C(=C\c1ccc(Cl)cc1)C(=O)c1ccccc1)C(C)C [JN036] | HIGH | MED/HIGH | MTT AR-Neg [3]: LOW/MED
O=C(/C(=C/c1ccc(Cl)cc1)CN1CCCCC1)c1ccccc1 [JN037] | MED | – | –
CN1CCN(C/C(=C\c2ccc(Cl)cc2)C(=O)c2ccccc2)CC1 [JN038] | HIGH | HIGH | MTT AR-Neg [3]: MED
CN(C/C(=C\c1cccc(Br)c1)C(=O)c1ccccc1)Cc1ccccc1 [JN040] | HIGH | – | –
CN(C/C(=C\c1ccccc1Br)C(=O)c1ccccc1)Cc1ccccc1.Cl [JN041] | HIGH | – | –
CN(C/C(=C\c1cccc(Cl)c1Cl)C(=O)c1ccccc1)Cc1ccccc1.Cl [JN042] | HIGH | – | –
CN(C/C(=C\c1ccc(Cl)cc1Cl)C(=O)c1ccccc1)Cc1ccccc1.Cl [JN045] | HIGH | – | –
CN(C/C(=C\c1ccccc1Cl)C(=O)c1ccccc1)Cc1ccccc1.Cl [JN046] | HIGH | – | –
CN(C/C(=C\c1ccccc1)C(=O)c1ccccc1)Cc1ccccc1 [JN047] | HIGH | – | –
Cc1ccccc1/C=C(\CN(C)Cc1ccccc1)C(=O)c1ccccc1 [JN049] | HIGH | – | –
C=C(CN(C)Cc1ccccc1)C(=O)/C(=C/c1ccc(F)cc1)c1ccccc1.Cl [JN054] | MED | LOW | –
C=C(CN(C)Cc1ccccc1)C(=O)/C(=C\c1ccc(F)cc1)c1ccccc1.Cl [JN055] | MED | – | GRE [5]: HIGH; ARE [4]: MED
C=C(CN(C)Cc1ccccc1)C(=O)/C(=C\c1ccc(OC)cc1)c1ccccc1.Cl [JN056] | LOW | – | –
C=C(CN(C)Cc1ccccc1)C(=O)/C(=C/c1ccc(Cl)c(Cl)c1)c1ccccc1.Cl [JN057] | MED | MED | GRE [5]: HIGH; MTT AR-Neg [3]: MED
C=C(CN(C)Cc1ccccc1)C(=O)/C(=C\c1ccc(Cl)c(Cl)c1)c1ccccc1.Cl [JN058] | LOW | – | –
C=C(CN(C)Cc1ccccc1)C(=O)C(=Cc1ccco1)c1ccccc1.Cl [JN061] | LOW | – | –
C=C(CN(C)Cc1ccccc1)C(=O)/C(=C/c1ccccc1)c1ccccc1.Cl [JN062] | LOW | HIGH | MTT AR-Neg [3]: HIGH

SMILES | MMTV [1] | MTT AR-Pos [2] | further results
C=C(CN(C)Cc1ccccc1)C(=O)/C(=C\c1ccccc1)c1ccccc1.Cl [JN063] | MED | – | –
C=C(CN(C)Cc1ccccc1)C(=O)/C(=C\c1ccc(C(F)(F)F)cc1)c1ccccc1.Cl [JN065] | HIGH | MED | MTT AR-Neg [3]: LOW
C=C(CN(C)Cc1ccccc1)C(=O)/C(=C/c1ccc(C)cc1)c1ccccc1.Cl [JN066] | LOW | – | –
C=C(CN(C)Cc1ccccc1)C(=O)/C(=C\c1ccc(C)cc1)c1ccccc1.Cl [JN067] | LOW | – | –
C=C(CN(C)Cc1ccccc1)C(=O)/C(=C/c1cc(Cl)cc(Cl)c1)c1ccccc1.Cl [JN068] | LOW | – | –
C=C(CN(C)Cc1ccccc1)C(=O)/C(=C/c1cccc(F)c1)c1ccccc1.Cl [JN069] | MED | – | –
C=C(CN(C)Cc1ccccc1)C(=O)/C(=C\c1cccc(Br)c1)c1ccccc1.Cl [JN070] | MED | – | –
C=C(CN(C)Cc1ccccc1)C(=O)/C(=C/c1cccc(Br)c1)c1ccccc1.Cl [JN071] | LOW | – | –
C=C(CN(C)Cc1ccccc1)C(=O)/C(=C\c1cccc(C(F)(F)F)c1)c1ccccc1.Cl [JN072] | LOW | – | –
C=C(CN(C)Cc1ccccc1)C(=O)/C(=C/c1cccc(C(F)(F)F)c1)c1ccccc1.Cl [JN073] | LOW | – | –
C=C(CN(C)Cc1ccccc1)C(=O)/C(=C/c1ccc(Cl)cc1)c1ccc(Cl)cc1.Cl [JN074] | HIGH | HIGH | MTT AR-Neg [3]: HIGH
C=C(CN(C)Cc1ccccc1)C(=O)/C(=C/c1ccc(Cl)cc1)c1cccc(Cl)c1.Cl [JN075] | MED | HIGH | MTT AR-Neg [3]: HIGH
C=C(CN(C)Cc1ccccc1)C(=O)/C(=C/c1ccc(Cl)cc1)c1ccccc1Cl.Cl [JN076] | HIGH | HIGH | MTT AR-Neg [3]: MED
C=C(CN1CCCCC1)C(=O)/C(=C/c1ccc(Cl)cc1)c1ccccc1.Cl [JN077] | HIGH | LOW | MTT AR-Neg [3]: LOW
C=C(CN1CCCC1)C(=O)/C(=C/c1ccc(Cl)cc1)c1ccccc1.Cl [JN078] | LOW | – | –
C=C(CN1CCNCC1)C(=O)/C(=C/c1ccc(Cl)cc1)c1ccccc1.Cl [JN079] | LOW | – | –
C=C(CN(C)Cc1ccccc1)C(=O)/C(=C/c1ccc(Cl)cc1)c1ccc(N=[N+]=[N-])cc1.Cl [JN080] | HIGH | LOW | MTT AR-Neg [3]: LOW
C=C(CN(C)Cc1ccccc1)C(=O)/C(=C\c1ccc(Cl)cc1)c1ccc(N=[N+]=[N-])cc1.Cl [JN081] | MED | – | –
C=C(CN(C)Cc1ccccc1)C(=O)/C(=C/c1ccc(Cl)c(F)c1)c1ccccc1.Cl [JN082] | LOW | LOW | MTT AR-Neg [3]: LOW; ARE [4]: LOW
C=C(CN(C)Cc1ccccc1)C(=O)/C(=C/c1ccc(Cl)cc1F)c1ccccc1.Cl [JN083] | HIGH | MED | MTT AR-Neg [3]: MED; ARE [4]: LOW
O=C(CC1CO1)/C(=C/c1ccc(Cl)cc1)c1ccccc1 (centres unmarked) [JN097, (E)-4-(4-Chlorophenyl)-1-(oxiran-2-yl)-3-phenylbut-3-en-2-one] | – | – | reporter activity driven by the ARE ([4]; result in words): inhibited reporter activity; growth inhibitory / suppressive effects as compared to JN018 ([2]; result in words): enhanced growth inhibitory effects
C=C(C)C(=O)NC(=O)/C(=C/c1cccs1)c1ccccc1 [JN128] | – | – | growth of AR expressing prostate cancer cells ([2]; result in words): selective growth inhibitory effects

— patent US11261152B2, “Inhibitors of the N-terminal domain of the androgen receptor” (The Regents of the University of California, priority 2017, dated 2022)
